Results as given in PubChem BioAssay (NCI).
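Step 1: Grow cells in 96-well plates. Step 2: Expose to compound for 48 hours at 5 concentrations. Step 3: Interpolate endpoints linearly; if unreached, use highest concentration. GI50 = concentration required for 50% inhibition of growth. TGI: concentration producing complete growth inhibition.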

Tests used:
Experiment in all cases: inhibition of tumour cell growth, NCI panel, 48 h
OVCAR-3 ovarian = test system: OVCAR-3 ovarian
RPMI-8226 leukemia = test system: RPMI-8226 leukemia
UACC-62 melanoma = test system: UACC-62 melanoma
COLO 205 colon = test system: COLO 205 colon
PC-3 prostate = test system: PC-3 prostate
MALME-3M melanoma = test system: MALME-3M melanoma
EKVX NSCLC = test system: EKVX NSCLC
HOP-92 NSCLC = test system: HOP-92 NSCLC
SNB-19 CNS = test system: SNB-19 CNS
NCI/ADR-RES ovarian = test system: NCI/ADR-RES ovarian
U251 CNS = test system: U251 CNS
CAKI-1 renal = test system: CAKI-1 renal
LOX IMVI melanoma = test system: LOX IMVI melanoma
UO-31 renal = test system: UO-31 renal
MOLT-4 leukemia = test system: MOLT-4 leukemia
TK-10 renal = test system: TK-10 renal
HS 578T breast = test system: HS 578T breast
SK-OV-3 ovarian = test system: SK-OV-3 ovarian
SNB-75 CNS = test system: SNB-75 CNS
SK-MEL-28 melanoma = test system: SK-MEL-28 melanoma
KM12 colon = test system: KM12 colon
ACHN renal = test system: ACHN renal
M14 melanoma = test system: M14 melanoma
BT-549 breast = test system: BT-549 breast
UACC-257 melanoma = test system: UACC-257 melanoma
MDA-MB-231 breast = test system: MDA-MB-231 breast
SF-268 CNS = test system: SF-268 CNS
SF-539 CNS = test system: SF-539 CNS
RXF 393 renal = test system: RXF 393 renal
K-562 leukemia = test system: K-562 leukemia
SK-MEL-5 melanoma = test system: SK-MEL-5 melanoma
HCT-116 colon = test system: HCT-116 colon
NCI-H226 lung = test system: NCI-H226 lung
HT29 colon = test system: HT29 colon
NCI-H460 lung = test system: NCI-H460 lung
CCRF-CEM leukemia = test system: CCRF-CEM leukemia
HOP-62 NSCLC = test system: HOP-62 NSCLC
T-47D breast = test system: T-47D breast
SF-295 CNS = test system: SF-295 CNS
MDA-MB-435 = test system: MDA-MB-435
DU-145 prostate = test system: DU-145 prostate
SR leukemia = test system: SR leukemia
SK-MEL-2 melanoma = test system: SK-MEL-2 melanoma
MCF7 breast = test system: MCF7 breast
OVCAR-5 ovarian = test system: OVCAR-5 ovarian
A549 NSCLC = test system: A549 NSCLC
OVCAR-4 ovarian = test system: OVCAR-4 ovarian
786-0 renal = test system: 786-0 renal
SW-620 colon = test system: SW-620 colon
A498 renal = test system: A498 renal
HL-60(TB) leukemia = test system: HL-60(TB) leukemia
HCC-2998 colon = test system: HCC-2998 colon

O=C(NO)c1ccc(Cn2c(=O)n(-c3ccccc3)c(=O)c3ccccc32)cc1
GI50 (OVCAR-3 ovarian): 1580 nM | TGI (OVCAR-3 ovarian): 7870 nM | GI50 (RPMI-8226 leukemia): 689 nM | TGI (RPMI-8226 leukemia): 93500 nM | GI50 (UACC-62 melanoma): 482 nM | TGI (UACC-62 melanoma): 2160 nM | GI50 (COLO 205 colon): 356 nM | TGI (COLO 205 colon): 1390 nM | GI50 (PC-3 prostate): 1720 nM | TGI (PC-3 prostate): 4530 nM | GI50 (MALME-3M melanoma): 473 nM | TGI (MALME-3M melanoma): 2340 nM | GI50 (EKVX NSCLC): 1110 nM | TGI (EKVX NSCLC): 2690 nM | GI50 (HOP-92 NSCLC): 1600 nM | TGI (HOP-92 NSCLC): 4180 nM | GI50 (SNB-19 CNS): 1850 nM | TGI (SNB-19 CNS): > 100000 nM | GI50 (NCI/ADR-RES ovarian): 2670 nM | TGI (NCI/ADR-RES ovarian): 39500 nM | GI50 (U251 CNS): 860 nM | TGI (U251 CNS): 2300 nM | GI50 (CAKI-1 renal): 2810 nM | TGI (CAKI-1 renal): 12300 nM | GI50 (LOX IMVI melanoma): 1260 nM | TGI (LOX IMVI melanoma): 2620 nM | GI50 (UO-31 renal): 1770 nM | TGI (UO-31 renal): 4630 nM | GI50 (MOLT-4 leukemia): 848 nM | TGI (MOLT-4 leukemia): > 100000 nM | GI50 (TK-10 renal): 1020 nM | TGI (TK-10 renal): 8080 nM | GI50 (HS 578T breast): 1600 nM | TGI (HS 578T breast): 9430 nM | GI50 (SK-OV-3 ovarian): 1300 nM | TGI (SK-OV-3 ovarian): 3170 nM | GI50 (SNB-75 CNS): 1880 nM | TGI (SNB-75 CNS): 5350 nM | GI50 (SK-MEL-28 melanoma): 519 nM | TGI (SK-MEL-28 melanoma): 2930 nM | GI50 (KM12 colon): 1110 nM | TGI (KM12 colon): 2730 nM | GI50 (ACHN renal): 1670 nM | TGI (ACHN renal): 6370 nM | GI50 (M14 melanoma): 539 nM | TGI (M14 melanoma): 2090 nM | GI50 (BT-549 breast): 1550 nM | TGI (BT-549 breast): 3920 nM | GI50 (UACC-257 melanoma): 811 nM | TGI (UACC-257 melanoma): 2780 nM | GI50 (MDA-MB-231 breast): 1630 nM | TGI (MDA-MB-231 breast): 5160 nM | GI50 (SF-268 CNS): 1380 nM | TGI (SF-268 CNS): 4520 nM | GI50 (SF-539 CNS): 693 nM | TGI (SF-539 CNS): 2860 nM | GI50 (RXF 393 renal): 1110 nM | TGI (RXF 393 renal): 2660 nM | GI50 (K-562 leukemia): 942 nM | TGI (K-562 leukemia): > 100000 nM | GI50 (SK-MEL-5 melanoma): 1060 nM | TGI (SK-MEL-5 melanoma): 2300 nM | GI50 (HCT-116 colon): 324 nM | TGI (HCT-116 colon): 898 nM | GI50 (NCI-H226 lung): 1320 nM | TGI (NCI-H226 lung): 2910 nM | GI50 (HT29 colon): 1830 nM | TGI (HT29 colon): 47900 nM | GI50 (NCI-H460 lung): 1440 nM | TGI (NCI-H460 lung): 9190 nM | GI50 (CCRF-CEM leukemia): 457 nM | TGI (CCRF-CEM leukemia): > 100000 nM | GI50 (HOP-62 NSCLC): 1320 nM | TGI (HOP-62 NSCLC): 3240 nM | GI50 (T-47D breast): 436 nM | TGI (T-47D breast): 2950 nM | GI50 (SF-295 CNS): 1380 nM | TGI (SF-295 CNS): 2980 nM | GI50 (MDA-MB-435): 531 nM | TGI (MDA-MB-435): 1770 nM | GI50 (DU-145 prostate): 773 nM | TGI (DU-145 prostate): > 100000 nM | GI50 (SR leukemia): 1680 nM | TGI (SR leukemia): > 100000 nM | GI50 (SK-MEL-2 melanoma): 1220 nM | TGI (SK-MEL-2 melanoma): 3340 nM | GI50 (MCF7 breast): 1730 nM | TGI (MCF7 breast): 60200 nM | GI50 (OVCAR-5 ovarian): 1080 nM | TGI (OVCAR-5 ovarian): 5280 nM | GI50 (A549 NSCLC): 2330 nM | TGI (A549 NSCLC): 13600 nM | GI50 (OVCAR-4 ovarian): 1560 nM | TGI (OVCAR-4 ovarian): 18700 nM | GI50 (786-0 renal): 1480 nM | TGI (786-0 renal): 3200 nM | GI50 (SW-620 colon): 667 nM | TGI (SW-620 colon): 3030 nM | GI50 (A498 renal): 418 nM | TGI (A498 renal): 2090 nM | GI50 (HL-60(TB) leukemia): 2660 nM | TGI (HL-60(TB) leukemia): > 100000 nM | GI50 (HCC-2998 colon): 1310 nM | TGI (HCC-2998 colon): 2650 nM
